Laboratory results as given in paper PMC11241255 (International Journal of Molecular Sciences, 2024).
Values joined by “and” are separate entries in the source; they are usually repeats but may differ in a detail not shown here. Equal entries are not always repeated. Where two headings read alike, the source gives them in different places.

Columns and labels:
Aβ1–42 [1] = target: T1, Aβ1–42 (Homo sapiens, UniProt P05067); assay: Anti-Aβ1–42 fibrilization, ThT assay; format: biochemical; settings: for Aβ fibrilization inhibition (ThT): samples 500 μg/mL, 37 °C 24 h
T1 construct: Aβ1–42 for MDS (GenicBio Inc., Shanghai, China); purchased GenicBio Inc
T1 sequence (P05067 672-713): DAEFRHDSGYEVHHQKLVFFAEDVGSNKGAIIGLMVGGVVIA
Method: The anti-Aβ1–42 fibrilization activity of the extracts/bioactives was monitored using a ThT assay. The samples were incubated in the presence/absence of Aβ1–42 at 37 °C for 24 h. The samples were incubated with 100 μM ThT at 37 °C for 15 min. The fluorescence was monitored at Ex 450 nm/Ems 490 nm (Synergy-H1 BioTek, Agilent, Santa Clara, CA, USA). For the control, phenol red (50 μM) was used. The Aβ1–42 aggregation inhibition was calculated as follows:Percent Inhibition (%) = [(1 − Fi/Fc) × 100] where Fi and Fc are the fluorescence intensity with and without the inhibitors, respectively.

[2] = Ferric reducing antioxidant potential (FRAP) assay; settings: 1 mg/mL
Method: FRAP assay was used to assess the […] of the extracts and phytocompounds with slight modification in a previously reported method. For the assay, the extract (1 mg/mL) was incubated with 200 μL of FRAP reagent, and the reduction of ferric tripyridyltriazine was monitored at 593 nm (Multimode reader, Synergy-H1 BioTek, Agilent, USA). Ascorbic acid (2 μg/mL) was used as a positive control. FRAP values of the extracts and phytocompounds were calculated from the standard curve of FeSO4 (15–250 μM) and expressed as μM Fe^2+/g.

[3] = target: T2, Acetylcholinesterase (Electrophorus electricus, Type VI-S) (Electrophorus electricus, UniProt O42275); assay: biochemical; settings: for IC50: read-out: AChE IC50 (converted); for Type of Inhibition of AChE: Lineweaver–Burk plot, 100 and 200 μg/mL; for Vmax of AChE in presence of inhibitor: no inhibitor 2.975
T2 construct: purchased Sigma-Aldrich
T2 sequence (O42275 24-633): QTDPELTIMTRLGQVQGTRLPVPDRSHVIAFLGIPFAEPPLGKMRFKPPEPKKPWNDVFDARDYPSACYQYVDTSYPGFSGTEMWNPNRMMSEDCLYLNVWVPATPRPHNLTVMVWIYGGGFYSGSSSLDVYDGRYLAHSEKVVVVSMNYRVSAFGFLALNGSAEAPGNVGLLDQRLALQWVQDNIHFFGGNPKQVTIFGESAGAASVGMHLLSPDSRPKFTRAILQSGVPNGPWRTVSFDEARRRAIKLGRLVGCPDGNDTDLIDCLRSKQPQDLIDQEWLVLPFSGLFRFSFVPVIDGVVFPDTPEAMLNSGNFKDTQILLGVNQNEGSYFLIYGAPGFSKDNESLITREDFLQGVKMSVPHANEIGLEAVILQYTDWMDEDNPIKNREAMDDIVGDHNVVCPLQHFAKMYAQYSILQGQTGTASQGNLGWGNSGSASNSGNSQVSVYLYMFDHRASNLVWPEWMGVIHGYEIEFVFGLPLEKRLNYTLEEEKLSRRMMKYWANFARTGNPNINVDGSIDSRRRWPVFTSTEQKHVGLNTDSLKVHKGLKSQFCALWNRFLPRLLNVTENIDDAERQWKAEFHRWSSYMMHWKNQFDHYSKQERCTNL
Method: The AChE activity was examined by slight modifications [23] in Ellman’s method [76]. The extracts and phytocompounds were incubated for 15 min with AChE and 10 mM ATCC at 37 °C. The reaction was stopped by DTNB (15 mM), and the absorbance was measured at 412 nm (Multi-mode plate reader, Synergy-H1 BioTek, Agilent, USA). […] The percent inhibition was calculated as:Percent Inhibition (I%) = [(Ao − Ac) − (Bi − Bc)]/(Ao − Ac) × 100 where Ao is the absorbance without inhibitor; Ac is the negative control without inhibitor; Bi is the absorbance with inhibitor; and Bc is the negative control with inhibitor. The IC50 values were calculated using GraphPad Prism 10. Lineweaver–Burk plot was used to prepare the inhibition curves (with and without extract/phytocompound) using GraphPad Prism 10. The kinetic parameters were calculated from a non-linear fit (Michaelis–Menten equation) in GraphPad Prism 10.
Statistical analysis was established by a one-way ANOVA followed by Dunnett’s post hoc test. Data are registered as the mean ± SEM of three sets of experiments. […] The IC50 values were determined using non-linear regression. The Vmax and Km were calculated from a Michaelis–Menten plot drawn using a non-linear plot (GraphPad Prism 10). Lineweaver–Burk plots were drawn using linear regression analysis (GraphPad Prism 10). The Ki values were calculated from the formula IC50 = Ki (1 + [S]/Km).

Aβ1–42 [4] = target: T1, Aβ1–42; assay: Anti-Aβ1–42 oligomerization, multimeric detection system (MDS); format: biochemical; settings: for Aβ oligomerization reduction (relative amount of Aβ oligomers): vs negative control (Buffer + Aβ)
Method: The anti-Aβ1–42 oligomerization and fibrilization activity of the extracts/bioactives were measured by Multiple Detection System (MDS) and ThT assay, respectively. Briefly, the extracts and phytocompounds were incubated with Aβ1–42 at RT for different time points (0 h, 2 h, and 4 h). The samples were incubated on an anti-β-amyloid pre-coated plate for 1 h at RT. An HRP-conjugated W0–2 monoclonal antibody was added, and the plate was kept at RT for 30 min. Later, TMB was added, and the plate was incubated for 15 min at RT. The absorbance was read at 450 nm using a microplate reader (Victor3, PerkinElmer, Shelton, CT, USA)

[5] = tested on: SH-SY5Y neuroblastoma cell line; assay: Cell viability / cytotoxicity assay (WST-8); format: cell-based, Human; settings: 24 h treatment; 1, 10, 30 µg/mL
Method: (§1) Human neuroblastoma SH-SY5Y cells (ATCC CRL-2266, Manassas, VA, USA) were maintained in Dulbecco’s modified Eagle’s medium (DMEM, Gibco) supplemented with 10% fetal bovine serum (FBS), 1% kanamycin, and 1% penicillin (Thermo Fisher Scientific, Waltham, MA, USA) at 37 °C with 5% CO2, and a 95% humidified atmosphere in the incubator. The experiments were executed at 80–90% cell confluency.
The cells were seeded (1 × 10^4 cells/well) in 96-well sterile plates and pre-treated with various extract concentrations (1, 10, 30 µg/mL) for 24 h. The extracts and phytocompounds were removed and incubated for 2 h with 10% WST-8 reagent (Roche, Grenzach-Wyhlen, Germany) as described previously. The absorbance was determined at 450 nm in a multi-plate reader (Synergy-H1 BioTek, Agilent, USA). The percent cytotoxicity was calculated as:Cytotoxicity % = (Ac − At)/(Ac) × 100 where Ac = absorbance of the control cells, At = absorbance of the treated cells.
The plot of percent cytotoxicity versus sample concentration was used to calculate the extract concentration that killed 50% of the cells (IC50).

[6] = tested on: H2O2-induced neuroblastoma SH-SY5Y cells; assay: Neuroprotection assay against H2O2-induced oxidative stress (WST-8); format: cell-based, Human
Method: as §1
The neuroprotective effect of extracts and phytocompounds on H2O2-induced oxidative stress in SH-SY5Y by a previously described method. The cells (1 × 10^4 cells/well) were seeded in a 96-well sterile plate. After stabilization, the cells were pre-treated with the extracts and phytocompounds for 24 h. The extracts and phytocompounds were removed and treated with H2O2 (100 μM) for 6 h. A solvent control, H2O2 alone, and extract alone treatments were also included. After incubation, the % cell viability was measured using WST-8 reagent in triplicate experiments.

[7] = tested on: H2O2-induced ROS production in SH-SY5Y cells; assay: Intracellular ROS measurement (H2DCFDA); format: cell-based, Human; settings: 12 h pre-treatment, H2O2 100 µM 2 h, H2O2 alone 156.96 ± 5.07%
Method: as §1
The cells (1 × 10^4 cells/well) were seeded in a 96-well sterile plate, after which they were pre-treated with the extract for 12 h. […] The fluorescence intensity (Ex 495 nm, Ems 520 nm) was measured by a microplate reader (Synergy-H1 BioTek, Agilent, USA). The ROS was calculated as a percentage of the untreated control cells (100%) in triplicate measurements.

SH-SY5Y cells = assay: Mitochondrial membrane potential (ΔΨm) assay (TMRE); format: cell-based, Human; settings: 12 h pre-treatment, 200 μM H2O2 2 h
Method: as §1
The mitochondrial membrane potential was measured using the tetramethylrhodamine, methyl ester (TMRE) staining method. The cells (1 × 10^4 cells/well) were seeded in a 96-well sterile plate; after which, they were pre-treated with the extract for 12 h. The extracts and phytocompounds were removed, followed by a 2 h treatment with H2O2 (200 μM). A 1 μM amount of TMRE was added to the cells and incubated for 1 h at 37 °C. The fluorescence was assessed (Ex 549 nm, Ems 575 nm) using a microplate reader (Synergy-H1 BioTek, Agilent, USA). The ΔΨm was calculated as a percentage of the untreated control cells (100%) in triplicate measurements.

SH-SY5Y cell lysate = assay: Glutathione (GSH, GSSG) in cell lysate; format: cell-based, Human; settings: 10 μg/mL; 24 h pre-treatment, 6 h H2O2 100 μM
Method: as §1
(§2) The cells (5 × 10^4 cells/well) were seeded in a 6-well sterile plate and incubated for 18–24 h. After stabilization, cells were pre-treated with the extracts and phytocompounds for 24 h before 6 h incubation with H2O2 (100 μM). The culture media was removed, and the cells were washed with cold PBS (1X). The cells were placed on ice and incubated with pre-chilled RIPA buffer for 10 min. Transfer the lysate in microfuge tubes and centrifuge (Labogene 1730R, BMS, Paju-si, Republic of Korea) for 10 min at 20,000× g, 4 °C. The supernatant was collected and stored at −80 °C.
The concentrations of GSH (reduced) and GSSG (oxidized) in the lysate were measured fluorometrically using a previously described and the fluorescence was recorded at 350/420 (Ex/Ems) in a microplate reader (Synergy-H1 BioTek, Agilent, Santa Clara, CA, USA).

SH-SY5Y cells lysate = assay: Malondialdehyde (MDA) in cell lysate (TBA:TCA); format: cell-based, Human; settings: 24 h pre-treatment, 6 h H2O2 100 μM
Method: as §1, §2
MDA levels were measured using TBA: TCA reagent as described previously. In the reaction, MDA reacts with two molecules of thiobarbituric acid (TBA) to give a pink pigment that absorbs at 532 nm. The standard curve of MDA (1–100 μM) was used to calculate lipid peroxidation in the lysate.

AChE = settings: cited from earlier work
[8] = cited from earlier work
[9] = ABTS radical scavenging assay; settings: positive control at 10 μg/mL
[10] = DPPH radical scavenging assay; settings: positive control at 10 μg/mL
Method: DPPH radical scavenging capacity of the extracts and phytocompounds at 1 mg/mL was measured with slight modification. The absorbance was monitored at 515 nm (Multimode reader, Synergy-H1 BioTek, Agilent, Santa Clara, CA, USA) using ascorbic acid (0.1–10 μg/mL) as a standard. Radical scavenging activity (RSA) was calculated as:% RSA = (Ab − Ae/Ab) × 100 where Ab = absorbance of the blank and Ae = absorbance of the extract.

[11] = mean of three experiments ± SEM

O=S1(=O)OC(c2ccc(O)cc2)(c2ccc(O)cc2)c2ccccc21 [phenol red, reference compound]
inhibition at 50 µM (Aβ1–42 [1]; positive control 50 μM, read-out: Aβ fibrilization inhibition (ThT)): 60.3 ± 4.29%

C=C(C)[C@H]1CC[C@H](C)C(=O)C1 [DHC, cyclohexanone,2-methyl-5-(1-methylethenyl)-]
FRAP value [2]: 45.22 ± 0.72 µM Fe^2+/g
IC50 [3, 11]: > 7.87 mM and 7.87 mM
IC50 ([3]; stated as bound): > 6.57 mM
Aβ oligomerization reduction (relative amount of Aβ oligomers) (Aβ1–42 [4]; 2 h incubation): non-significant
percent Aβ oligomerization inhibition (Aβ1–42 [4]; MDS, Figure 3B, mean ± SEM n = 3): 26.62 ± 8.62%
Aβ fibrilization inhibition (ThT) (Aβ1–42 [1]): 26.6% and 33.44 ± 3.43%
Cytotoxicity (cell viability) in SH-SY5Y [5]: No significant difference
cell viability change vs H2O2 control ([6]; all concentrations (0.1–30 µg/mL)): non-significantly increased
ROS level (% of untreated cells) ([7]; 10 µg/mL): 107.37 ± 8.26%
ROS level (% of untreated cells) ([7]; 30 µg/mL): 96.73 ± 9.11%
MMP (% ΔΨm vs untreated cells) (SH-SY5Y cells; 0.1 µg/mL): 74.94 ± 1.20%
MMP (% ΔΨm vs untreated cells) (SH-SY5Y cells; 1 µg/mL): 79.26 ± 0.56%
MMP (% ΔΨm vs untreated cells) (SH-SY5Y cells; 10 µg/mL): 85.21 ± 0.19%
MMP (% ΔΨm vs untreated cells) (SH-SY5Y cells; 30 µg/mL): 86.91 ± 5.47%
GSSG levels (SH-SY5Y cell lysate): substantial reduction
MDA level (SH-SY5Y cells lysate; 0.1 µg/mL): 1.79 µM
MDA level (SH-SY5Y cells lysate; 1 µg/mL): 1.60 µM
MDA level (SH-SY5Y cells lysate; 10 μg/mL): 1.45 µM
AChE inhibition (AChE; at 1 mg/mL): 31.1%

C=CCc1cc(OC)c2c(c1OC)OCO2 [apiole]
FRAP value [2]: 42.41 ± 3.54 µM Fe^2+/g
Ki ([3]; Ki): 1.72 mM
Ki ([3]; Ki (inhibitor constant), AChE): 1.72 mM and 1.71 mM
Type of Inhibition of AChE [3]: competitive inhibition
Type of Inhibition of AChE ([3]; listed as Apiole): Competitive
Vmax of AChE in presence of inhibitor ([3]; inhibitor 100 μg/mL): 3.551 µmol/min/mg
Vmax of AChE in presence of inhibitor ([3]; inhibitor 200 μg/mL): 3.712 µmol/min/mg
IC50 [3, 11]: 1.75 mM
IC50 ([3]; molar equivalent of the μg/mL value): 1.74 mM
Aβ oligomerization reduction (relative amount of Aβ oligomers) (Aβ1–42 [4]; 2 h incubation): statistically significant
Aβ oligomerization reduction (relative amount of Aβ oligomers) (Aβ1–42 [4]; 4 h incubation): statistically significant
Aβ fibrilization inhibition (ThT) (Aβ1–42 [1]): 41.85 ± 1.73%
Cytotoxicity (cell viability) in SH-SY5Y [5]: No significant difference
% cell viability, H2O2-induced SH-SY5Y ([6]; 1–30 µg/mL, 12 h pre-treatment, 1 h H2O2 100 µM): ~ 75%
ROS level (% of untreated cells) ([7]; 10 µg/mL): 113.63 ± 6.25%
ROS level (% of untreated cells) ([7]; 30 µg/mL): 102.92 ± 9.11%
MMP (% ΔΨm vs untreated cells) (SH-SY5Y cells; 0.1 µg/mL): 71.53 ± 0.37%
MMP (% ΔΨm vs untreated cells) (SH-SY5Y cells; 1–30 µg/mL): 75 to 77%
MDA level (SH-SY5Y cells lysate; 0.1 µg/mL): 1.94 µM
MDA level (SH-SY5Y cells lysate; 1 and 10 µg/mL): ~ 1.38 µM
BBB permeability [8]: lacks significant BBB permeability

O=c1c(O)c(-c2ccc(O)c(O)c2)oc2cc(O)cc(O)c12 [quercetin]
ABTS radical scavenging activity [9]: 97.55 ± 0.05%

O=C1O[C@H]([C@@H](O)CO)C(O)=C1O [Ascorbic acid, ascorbic acid]
DPPH percent radical scavenging activity [10]: 85.43 ± 1.02%

COc1ccc2c3c1O[C@H]1C[C@@H](O)C=C[C@@]31CCN(C)C2 [galantamine, reference compound]
AChE IC50 (AChE; previously reported value, no reference given): 4.31 µg/mL
